Measurements taken from ChEMBL document CHEMBL3124749, “Synthesis, biological evaluation and molecular modeling study of novel tacrine-carbazole hybrids as potential multifunctional agents for the treatment of Alzheimer's disease” (Eur J Med Chem, 2014).
Calls of active or inactive are those of the source. The calls are words filed in the database; no cut-off is given here.

Key:
NG108-15 [1] = assay: Neuroprotective activity against H2O2-induced oxidative stress in mouse/rat NG108-15 cells assessed as increase in cell viability at 10 uM incubated for 2 hrs prior to H2O2 challenge for 2 hrs by MTT assay; format: functional, cell-based
Cholinesterase = Cholinesterase (Homo sapiens, UniProt P06276)
Description: Inhibition of BuChE in human serum using butyrylthiocholine iodide as substrate measured every 30s for 5 mins by Ellman's spectrophotometric method

C6 = assay: cells; conditions: Rattus norvegicus, C6, 24 h, read-out: Activity
Description: Neuroprotective activity against Abeta1-42 peptide-induced neurotoxicity in rat C6 cells assessed as cell viability at 100 uM after 24 hrs by MTT assay

NG108-15 [2] = assay: cells; conditions: Murinae, NG108-15, read-out: Activity
Description: Neuroprotective activity against H2O2-induced oxidative stress in mouse/rat NG108-15 cells assessed as cell viability at 100 uM incubated for 2 hrs prior to H2O2 challenge for 2 hrs by MTT assay

NG108-15 [3] = assay: Neuroprotective activity against H2O2-induced oxidative stress in mouse/rat NG108-15 cells assessed as increase in cell viability at 1 uM incubated for 2 hrs prior to H2O2 challenge for 2 hrs by MTT assay; format: functional, cell-based
Mus musculus [4] = assay: Inhibition of scopolamine-induced cognitive deficit in ICR mouse assessed as spontaneous alternation behaviour at 50 micromol/kg, ip administered 1 hr prior to scopolamine challenge measured after 30 mins by Y-maze test (reference value: 40.22 +/-3.54%); format: functional; design: scale not given: the % may be the effect or the level left
Mus musculus [5] = assay: Inhibition of scopolamine-induced cognitive deficit in ICR mouse assessed as spontaneous alternation behaviour at 25 micromol/kg, ip administered 1 hr prior to scopolamine challenge measured after 30 mins by Y-maze test (reference value: 40.22 +/-3.54%); format: functional; design: scale not given: the % may be the effect or the level left
Mus musculus [6] = assay: Inhibition of scopolamine-induced cognitive deficit in ICR mouse assessed as time spent swimming in Q1 quadrant at 50 micromol/kg, ip administered 1 hr prior to scopolamine challenge measured after 30 mins by morris water maze test (reference value: 11.76 +/-0.49s); format: functional
Mus musculus [7] = assay: Inhibition of scopolamine-induced cognitive deficit in ICR mouse assessed as time spent swimming in Q1 quadrant at 25 micromol/kg, ip administered 1 hr prior to scopolamine challenge measured after 30 mins by morris water maze test (reference value: 11.76 +/-0.49s); format: functional

Chain of Cholinesterase (P06276 whole entry): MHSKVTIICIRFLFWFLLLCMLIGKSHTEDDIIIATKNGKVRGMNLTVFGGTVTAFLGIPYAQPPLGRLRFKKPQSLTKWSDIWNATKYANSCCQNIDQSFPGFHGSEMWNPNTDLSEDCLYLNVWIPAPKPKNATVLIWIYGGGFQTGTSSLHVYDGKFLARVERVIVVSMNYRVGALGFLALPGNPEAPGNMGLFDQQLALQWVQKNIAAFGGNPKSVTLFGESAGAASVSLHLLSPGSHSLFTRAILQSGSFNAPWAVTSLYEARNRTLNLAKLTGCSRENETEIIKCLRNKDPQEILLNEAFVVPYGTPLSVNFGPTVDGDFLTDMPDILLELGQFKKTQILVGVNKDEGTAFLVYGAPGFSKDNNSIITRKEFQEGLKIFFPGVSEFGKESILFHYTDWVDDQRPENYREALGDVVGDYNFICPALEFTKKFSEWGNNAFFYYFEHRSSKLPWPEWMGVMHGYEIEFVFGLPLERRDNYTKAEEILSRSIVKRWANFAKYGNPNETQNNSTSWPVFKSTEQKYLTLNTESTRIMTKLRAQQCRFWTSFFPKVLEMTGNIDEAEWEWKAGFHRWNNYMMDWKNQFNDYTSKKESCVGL

SMILES: CC(C)=CCc1c(O)c(/C=N/CCCCCNc2c3c(nc4ccccc24)CCCC3)cc2c1[nH]c1ccccc12
- Activity (NG108-15 [1]): Active
- IC50 (Cholinesterase): 19.4 µM
- viability at 100 µM (C6): 59.4%
- viability at 100 µM (NG108-15 [2]): 68.8%

SMILES: COc1ccc2c(c1)[nH]c1c(CC=C(C)C)c(O)c(/C=N/CCCNc3c4c(nc5ccccc35)CCCC4)cc12
- Activity (NG108-15 [3]): Active
- viability at 100 µM (C6): 63%
- viability at 100 µM (NG108-15 [2]): 74.7%

SMILES: COc1ccc2c(c1)[nH]c1c(CC=C(C)C)c(O)c(C=O)cc12
- IC50 (Cholinesterase): > 100 µM
- viability at 100 µM (NG108-15 [2]): 65.5%

SMILES: COc1ccc2c(c1)[nH]c1c(CC=C(C)C)c(O)c(/C=N/CCCCCNc3c4c(nc5ccccc35)CCCC4)cc12
- Activity (NG108-15 [3]): Active
- Activity (Mus musculus [4]): 59.8%
- Activity (Mus musculus [5]): 53.88%
- Time (Mus musculus [6]): 17.86 s
- Time (Mus musculus [7]): 17.21 s
- IC50 (Cholinesterase): 52.1 µM
- viability at 100 µM (C6): 66.3%
- viability at 100 µM (NG108-15 [2]): 78.4%

SMILES: CC(C)=CCc1c(O)c(C=O)cc2c1[nH]c1ccccc12 [HEPTAPHYLLINE]
- IC50 (Cholinesterase): > 100 µM
- viability at 100 µM (NG108-15 [2]): 59.8%
